PMC5608804, “Stepwise Evolution Improves Identification of Diverse Peptides Binding to a Protein Target” (Scientific Reports, 2017)

Biological target: T1, streptavidin (Streptomyces avidinii, UniProt P22629)
T1 construct: purchased GE Healthcare (Little Chalfont, UK)
Test: Cy5-streptavidin binding on HotSpot discovery array, 5-mer L-peptide library
Details: for S/B: signal to background ratio
How it was run: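 Array of 2,476,099 5-mer peptides (19 amino acids, no cysteine) with Gly-Ser linkers, probed overnight at 4 °C with 0.5 µg/ml Cy5-streptavidin in Tris pH 7.4 buffer containing casein or BSA plus Tween-20. Cy5 fluorescence read at 635 nm; peptides selected by signal-to-background >4 across three arrays.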

[1] = 5-mer L-peptide library array, Cy5-streptavidin, from the average of three arrays
[2] = 5-mer L-peptide library array, Cy5-streptavidin
[3] = 5-mer L-peptide library array, Cy5-streptavidin, from average of three arrays
[4] = average of three arrays, L-peptide 5-mer library
[5] = 5-mer L-peptide library, from the average of three arrays

T1 sequence (P22629 25-183): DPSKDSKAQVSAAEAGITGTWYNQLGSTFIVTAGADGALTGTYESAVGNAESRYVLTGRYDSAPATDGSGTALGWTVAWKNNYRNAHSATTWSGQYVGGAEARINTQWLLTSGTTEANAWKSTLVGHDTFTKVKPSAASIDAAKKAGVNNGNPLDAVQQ

Substance: DRHPQ
- S/B (signal to background ratio) [1]: 87.4

Substance: QHPMH
- S/B [2]: 12.4

Substance: HPAFM
- S/B [2]: 5.7

Substance: HHPQK
- S/B [2]: 18.7

Substance: TSHPQ
- S/B (signal to background ratio) [3]: 122.6

Substance: YEHPQ
- S/B (signal to background ratio) [1]: 103.2

Substance: LGQFH [L-amino acid 5-mer array peptide]
- S/B (signal to background ratio) [3]: 21.5
- S/B (signal to background ratio) [4]: 21.5

Substance: AHHPQ
- S/B (signal to background ratio) [3]: 131.6

Substance: LVHPQ
- S/B (signal to background ratio) [3]: 129.9

Substance: YHPQA
- S/B (signal to background ratio) [3]: 168.4

Substance: VMHPQ
- S/B (signal to background ratio) [3]: 127.9

Substance: HPQSK
- S/B (signal to background ratio) [5]: 4.7

Substance: NHPMA
- S/B (signal to background ratio) [1]: 59.8

Substance: HPQGH
- S/B (signal to background ratio) [1]: 86.0

Substance: SMHPQ
- S/B (signal to background ratio) [3]: 142.0

Substance: DMHPQ
- S/B (signal to background ratio) [1]: 69.3

Substance: HPQYL
- S/B (signal to background ratio) [5]: 4.7

Substance: VFHPQ
- S/B (signal to background ratio) [3]: 152.8

Substance: DSHPQ
- S/B (signal to background ratio) [1]: 74.0

Substance: RHPMT
- S/B (signal to background ratio) [5]: 5.1

Substance: HPMKP
- S/B (signal to background ratio) [5]: 4.6

Substance: HPMGK
- S/B [2]: 5.3

Substance: LGIYH [L-amino acid 5-mer array peptide]
- S/B (signal to background ratio) [4]: 10.5
- S/B [2]: 10.5

Substance: QTHPQ
- S/B (signal to background ratio) [1]: 90.7

Substance: YRHPM
- S/B (signal to background ratio) [1]: 71.5

Substance: HPQYW
- S/B [2]: 5.7

Substance: RGHPQ
- S/B (signal to background ratio) [3]: 135.0

Substance: KMHPM
- S/B (signal to background ratio) [3]: 22.0

Substance: NEHPQ
- S/B (signal to background ratio) [1]: 58.6

Substance: GHPQF
- S/B (signal to background ratio) [3]: 125.7

Substance: AHPQS
- S/B (signal to background ratio) [1]: 79.9

Substance: LAAYH [L-amino acid 5-mer array peptide]
- S/B (signal to background ratio) [1]: 67.7
- S/B (signal to background ratio) [4]: 67.7

Substance: WRHPH
- S/B (signal to background ratio) [5]: 4.2

Substance: VKHPM
- S/B (signal to background ratio) [3]: 19.5

Substance: KLHPQ
- S/B (signal to background ratio) [1]: 71.4

Substance: SHPQM
- S/B (signal to background ratio) [3]: 37.7

Substance: HPQTQ
- S/B [2]: 5.4

Substance: MHPMA
- S/B (signal to background ratio) [1]: 62.7

Substance: FHPQN
- S/B (signal to background ratio) [3]: 168.8

Substance: IQHPQ
- S/B (signal to background ratio) [3]: 139.6

Substance: DSHPM
- S/B [2]: 17.9

Substance: VHPQH
- S/B (signal to background ratio) [3]: 31.7

Substance: NRHPQ
- S/B (signal to background ratio) [1]: 115.2

Substance: MIHPM
- S/B (signal to background ratio) [3]: 32.1

Substance: HPQQQ
- S/B [2]: 10.8

Substance: RHPMM
- S/B [2]: 11.6

Substance: HPQGD
- S/B (signal to background ratio) [1]: 62.3

Substance: HHPMA
- S/B (signal to background ratio) [1]: 76.0

Substance: PWHPQ
- S/B (signal to background ratio) [3]: 182.5

Substance: HPMYR
- S/B [2]: 5.9

Substance: GVHPM
- S/B (signal to background ratio) [3]: 31.6

Substance: NWHPQ
- S/B (signal to background ratio) [3]: 184.8

Substance: LHPMS
- S/B (signal to background ratio) [3]: 22.2

Substance: PHPQN
- S/B (signal to background ratio) [3]: 138.6

Substance: KNHPQ
- S/B (signal to background ratio) [1]: 104.8

Substance: HPQST
- S/B [2]: 12.9

Substance: HPMRW
- S/B [2]: 12.6

Substance: LVHPM
- S/B (signal to background ratio) [3]: 31.0

Substance: WHPQM
- S/B (signal to background ratio) [1]: 100.1

Substance: FLHHP
- S/B [2]: 5.9

Substance: GIHPQ
- S/B (signal to background ratio) [1]: 100.2

Substance: QQHPM
- S/B (signal to background ratio) [3]: 43.3

Substance: KHPMV
- S/B [2]: 6.9

Substance: NHPQI
- S/B (signal to background ratio) [3]: 21.1

Substance: HPQQW
- S/B [2]: 16.8

Substance: HPMTP
- S/B [2]: 5.6

Substance: SWHPQ
- S/B (signal to background ratio) [3]: 171.5

Substance: YMHPQ
- S/B (signal to background ratio) [3]: 181.7

Substance: RFHPQ
- S/B (signal to background ratio) [3]: 161.9

Substance: GHPQP
- S/B (signal to background ratio) [5]: 4.5

Substance: HPQTG
- S/B (signal to background ratio) [3]: 28.1

Substance: HPMGI
- S/B [2]: 7.9

Substance: WHPQN
- S/B (signal to background ratio) [3]: 176.6

Substance: WGHPQ
- S/B (signal to background ratio) [3]: 216.3

Substance: PAHPQ
- S/B (signal to background ratio) [3]: 124.5

Substance: YHHPQ
- S/B (signal to background ratio) [3]: 183.0

Substance: FHPMW
- S/B (signal to background ratio) [5]: 5.1

Substance: HPQQN
- S/B (signal to background ratio) [3]: 23.0

Substance: EHPQG
- S/B (signal to background ratio) [1]: 64.3

Substance: HGHPM
- S/B (signal to background ratio) [1]: 69.3

Substance: HPQYG
- S/B (signal to background ratio) [3]: 55.1

Substance: WHPMK
- S/B [2]: 14.5

Substance: NWHPM
- S/B (signal to background ratio) [1]: 84.8

Substance: RTHPQ
- S/B (signal to background ratio) [3]: 125.7

Substance: SHPQF
- S/B (signal to background ratio) [3]: 132.4

Substance: LKHPM
- S/B (signal to background ratio) [3]: 26.3

Substance: FHPQL
- S/B [2]: 7.4

Substance: HPRQF
- S/B (signal to background ratio) [5]: 4.3

Substance: HPQVA
- S/B (signal to background ratio) [1]: 67.2

Substance: KHHPM
- S/B (signal to background ratio) [3]: 29.1

Substance: FDHPQ
- S/B (signal to background ratio) [3]: 121.8

Substance: HPQHY
- S/B [2]: 11.4

Substance: DHPMN
- S/B [2]: 12.4

Substance: MPHPQ
- S/B (signal to background ratio) [3]: 180.4

Substance: MHPMG
- S/B (signal to background ratio) [3]: 42.9

Substance: YHETH [L-amino acid 5-mer array peptide]
- S/B (signal to background ratio) [4]: 6.0
- S/B [2]: 6.0

Substance: GHPQY
- S/B (signal to background ratio) [3]: 40.1

Substance: LHPMA
- S/B (signal to background ratio) [3]: 41.0

Substance: VHPMN
- S/B [2]: 13.1

Substance: HPQRF
- S/B [2]: 7.3

Substance: VHHPM
- S/B (signal to background ratio) [3]: 54.5

Substance: RHHPM
- S/B (signal to background ratio) [3]: 53.8
